Reference: PubChem BioAssay (NCI)
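96-well plates; 48 h exposure; 5 concentrations. Endpoints by linear interpolation between flanking doses. Not reached: highest tested concentration assigned. Here, GI50 denotes the concentration required for 50% inhibition of growth. TGI is the concentration that stops growth completely.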

Columns and labels:
Experiment in all cases: growth of human tumour cells (NCI), 48 h; in the data active = GI50 below about 0.43 µM; inactive = the rest
HS 578T breast = test system: HS 578T breast
COLO 205 colon = test system: COLO 205 colon
MCF7 breast = test system: MCF7 breast
A549 NSCLC = test system: A549 NSCLC
SF-268 CNS = test system: SF-268 CNS
U251 CNS = test system: U251 CNS
HL-60(TB) leukemia = test system: HL-60(TB) leukemia
DU-145 prostate = test system: DU-145 prostate
K-562 leukemia = test system: K-562 leukemia
PC-3 prostate = test system: PC-3 prostate
MDA-MB-231 breast = test system: MDA-MB-231 breast
MDA-MB-435 = test system: MDA-MB-435
NCI-H23 lung = test system: NCI-H23 lung
LOX IMVI melanoma = test system: LOX IMVI melanoma
CCRF-CEM leukemia = test system: CCRF-CEM leukemia
SK-OV-3 ovarian = test system: SK-OV-3 ovarian
OVCAR-5 ovarian = test system: OVCAR-5 ovarian
HOP-62 NSCLC = test system: HOP-62 NSCLC
SF-539 CNS = test system: SF-539 CNS
MALME-3M melanoma = test system: MALME-3M melanoma
SF-295 CNS = test system: SF-295 CNS
SK-MEL-5 melanoma = test system: SK-MEL-5 melanoma
SNB-75 CNS = test system: SNB-75 CNS
MOLT-4 leukemia = test system: MOLT-4 leukemia
KM12 colon = test system: KM12 colon
SNB-19 CNS = test system: SNB-19 CNS
SK-MEL-28 melanoma = test system: SK-MEL-28 melanoma
CAKI-1 renal = test system: CAKI-1 renal
SN12C renal = test system: SN12C renal
UACC-257 melanoma = test system: UACC-257 melanoma
HCC-2998 colon = test system: HCC-2998 colon
OVCAR-8 ovarian = test system: OVCAR-8 ovarian
HCT-15 colon = test system: HCT-15 colon
OVCAR-3 ovarian = test system: OVCAR-3 ovarian
NCI-H522 lung = test system: NCI-H522 lung
M14 melanoma = test system: M14 melanoma
OVCAR-4 ovarian = test system: OVCAR-4 ovarian
RPMI-8226 leukemia = test system: RPMI-8226 leukemia
UO-31 renal = test system: UO-31 renal
EKVX NSCLC = test system: EKVX NSCLC
ACHN renal = test system: ACHN renal
SW-620 colon = test system: SW-620 colon
NCI/ADR-RES ovarian = test system: NCI/ADR-RES ovarian
IGROV1 ovarian = test system: IGROV1 ovarian
TK-10 renal = test system: TK-10 renal
A498 renal = test system: A498 renal
NCI-H226 lung = test system: NCI-H226 lung
786-0 renal = test system: 786-0 renal
SK-MEL-2 melanoma = test system: SK-MEL-2 melanoma
RXF 393 renal = test system: RXF 393 renal
NCI-H460 lung = test system: NCI-H460 lung
HT29 colon = test system: HT29 colon
HCT-116 colon = test system: HCT-116 colon
UACC-62 melanoma = test system: UACC-62 melanoma
BT-549 breast = test system: BT-549 breast
SR leukemia = test system: SR leukemia

Cc1c(C(=O)O)n(-c2ccc(Cl)cc2)c2ncnc(N)c12
54.6 µM: TGI (PC-3 prostate)
39.5 µM: TGI (RXF 393 renal)
48.6 µM: TGI (SF-539 CNS)
37.2 µM: TGI (NCI-H23 lung)
58.7 µM: TGI (BT-549 breast)
75.4 µM: TGI (DU-145 prostate)
69.6 µM: TGI (HS 578T breast)
90.5 µM: TGI (CCRF-CEM leukemia)
70.1 µM: TGI (MDA-MB-231 breast) | TGI (TK-10 renal)
75.7 µM: TGI (MALME-3M melanoma)
37.8 µM: TGI (NCI-H460 lung)
> 100 µM: TGI (MCF7 breast) | TGI (U251 CNS) | TGI (HL-60(TB) leukemia) | TGI (K-562 leukemia) | TGI (MDA-MB-435) | TGI (LOX IMVI melanoma) | TGI (OVCAR-5 ovarian) | TGI (SF-295 CNS) | TGI (SNB-75 CNS) | TGI (MOLT-4 leukemia) | TGI (KM12 colon) | TGI (SK-MEL-28 melanoma) | TGI (UACC-257 melanoma) | TGI (OVCAR-3 ovarian) | TGI (OVCAR-4 ovarian) | TGI (UO-31 renal) | TGI (SW-620 colon) | TGI (NCI/ADR-RES ovarian) | TGI (IGROV1 ovarian) | TGI (SK-MEL-2 melanoma) | TGI (SR leukemia)
52.2 µM: TGI (A498 renal)
97.6 µM: TGI (SNB-19 CNS)
50.5 µM: TGI (NCI-H522 lung)
47.7 µM: TGI (HCT-116 colon)
58.6 µM: TGI (HOP-62 NSCLC)
56.1 µM: TGI (EKVX NSCLC)
29.9 µM: TGI (SK-MEL-5 melanoma)
35.8 µM: TGI (RPMI-8226 leukemia)
57.1 µM: TGI (SN12C renal) | TGI (HCC-2998 colon)
65.3 µM: TGI (A549 NSCLC)
59.9 µM: TGI (OVCAR-8 ovarian)
43.3 µM: TGI (COLO 205 colon)
inactive: GI50 (HS 578T breast) 23.1 µM | GI50 (COLO 205 colon) 21.7 µM | GI50 (MCF7 breast) > 100 µM | GI50 (A549 NSCLC) 17.4 µM | GI50 (SF-268 CNS) 12.2 µM | GI50 (U251 CNS) 31.8 µM | GI50 (HL-60(TB) leukemia) 37.3 µM | GI50 (DU-145 prostate) 24.1 µM | GI50 (K-562 leukemia) 21.4 µM | GI50 (PC-3 prostate) 19.4 µM | GI50 (MDA-MB-231 breast) 18 µM | GI50 (MDA-MB-435) 33.2 µM | GI50 (NCI-H23 lung) 16.7 µM | GI50 (LOX IMVI melanoma) 30.1 µM | GI50 (CCRF-CEM leukemia) 27.8 µM | GI50 (SK-OV-3 ovarian) 43.9 µM | GI50 (OVCAR-5 ovarian) 46.4 µM | GI50 (HOP-62 NSCLC) 20 µM | GI50 (SF-539 CNS) 22.7 µM | GI50 (MALME-3M melanoma) 31.5 µM | GI50 (SF-295 CNS) 28.7 µM | GI50 (SK-MEL-5 melanoma) 16.2 µM | GI50 (SNB-75 CNS) 62 µM | GI50 (MOLT-4 leukemia) 31.2 µM | GI50 (KM12 colon) 29.9 µM | GI50 (SNB-19 CNS) 36.4 µM | GI50 (SK-MEL-28 melanoma) 64.8 µM | GI50 (CAKI-1 renal) 19.2 µM | GI50 (SN12C renal) 19.5 µM | GI50 (UACC-257 melanoma) 36.2 µM | GI50 (HCC-2998 colon) 23.6 µM | GI50 (OVCAR-8 ovarian) 14 µM | GI50 (HCT-15 colon) 24.1 µM | GI50 (OVCAR-3 ovarian) 17.5 µM | GI50 (NCI-H522 lung) 16 µM | GI50 (M14 melanoma) 22.6 µM | GI50 (OVCAR-4 ovarian) 48.4 µM | GI50 (RPMI-8226 leukemia) 12.4 µM | GI50 (UO-31 renal) 10.3 µM | GI50 (EKVX NSCLC) 17.2 µM | GI50 (ACHN renal) 22.6 µM | GI50 (SW-620 colon) 32.3 µM | GI50 (NCI/ADR-RES ovarian) 25.1 µM | GI50 (IGROV1 ovarian) 14.6 µM | GI50 (TK-10 renal) 21.8 µM | GI50 (A498 renal) 19.4 µM | GI50 (NCI-H226 lung) 14.9 µM | GI50 (786-0 renal) 21.1 µM | GI50 (SK-MEL-2 melanoma) 46.9 µM | GI50 (RXF 393 renal) 13.6 µM | GI50 (NCI-H460 lung) 14.5 µM | GI50 (HT29 colon) 22.6 µM | GI50 (HCT-116 colon) 20.5 µM | GI50 (UACC-62 melanoma) 17 µM | GI50 (BT-549 breast) 21.7 µM | GI50 (SR leukemia) 16.6 µM
56.2 µM: TGI (786-0 renal)
50.2 µM: TGI (NCI-H226 lung)
41.9 µM: TGI (UACC-62 melanoma)
51 µM: TGI (HT29 colon)
53.6 µM: TGI (M14 melanoma)
67.8 µM: TGI (CAKI-1 renal)
38.9 µM: TGI (SF-268 CNS)
75.1 µM: TGI (SK-OV-3 ovarian)
96.9 µM: TGI (HCT-15 colon) | TGI (ACHN renal)
